Results: PubChem BioAssay AID1259407 (Chemical Carcinogenesis Research Information System (CCRIS), 2018)
Active and inactive are the calls of the source. The rule behind the calls is not given here.

Tested on: CCRIS mutagenicity, Ames/micronucleus/aberration tests
Test: CCRIS mutagenicity studies

## Nc1ccccc1
Test System: AMES SALMONELLA TYPHIMURIUM, Strain/Indicator: TA1535, Metabolic Activation: RAT, LIVER, S-9, Method: STANDARD PLATE
  mutagenic call: inactive; negative
Test System: AMES SALMONELLA TYPHIMURIUM, Strain/Indicator: TA1537, Metabolic Activation: HAMSTER, LIVER, S-9, AROCLOR 1254, Method: STANDARD PLATE
  mutagenic call: inactive; negative
Test System: AMES SALMONELLA TYPHIMURIUM, Strain/Indicator: TA1537, Metabolic Activation: HAMSTER, LIVER, S-9, Method: STANDARD PLATE
  mutagenic call: inactive; negative
Test System: AMES SALMONELLA TYPHIMURIUM, Strain/Indicator: TA1537, Metabolic Activation: MOUSE, LIVER, S-9, AROCLOR 1254, Method: STANDARD PLATE
  mutagenic call: inactive; negative
Test System: AMES SALMONELLA TYPHIMURIUM, Strain/Indicator: TA1537, Metabolic Activation: MOUSE, LIVER, S-9, Method: STANDARD PLATE
  mutagenic call: inactive; negative
Test System: AMES SALMONELLA TYPHIMURIUM, Strain/Indicator: TA1537, Metabolic Activation: NONE, Method: STANDARD PLATE
  mutagenic call: inactive; negative
Test System: AMES SALMONELLA TYPHIMURIUM, Strain/Indicator: TA1537, Metabolic Activation: RAT, LIVER, S-9, AROCLOR 1254, Method: STANDARD PLATE
  mutagenic call: inactive; negative
Test System: AMES SALMONELLA TYPHIMURIUM, Strain/Indicator: TA1537, Metabolic Activation: RAT, LIVER, S-9, PYRAZOLE, Method: PREINCUBATION
  mutagenic call: inactive; negative
Test System: AMES SALMONELLA TYPHIMURIUM, Strain/Indicator: TA1537, Metabolic Activation: RAT, LIVER, S-9, Method: STANDARD PLATE
  mutagenic call: inactive; negative
Test System: AMES SALMONELLA TYPHIMURIUM, Strain/Indicator: TA1538, Metabolic Activation: HAMSTER, LIVER, S-9, AROCLOR 1254, Method: STANDARD PLATE
  mutagenic call: inactive; negative
Test System: AMES SALMONELLA TYPHIMURIUM, Strain/Indicator: TA1538, Metabolic Activation: HAMSTER, LIVER, S-9, Method: STANDARD PLATE
  mutagenic call: inactive; negative
Test System: AMES SALMONELLA TYPHIMURIUM, Strain/Indicator: TA1538, Metabolic Activation: HAMSTER, SPLEEN, S-9, AROCLOR 1254, Method: STANDARD PLATE
  mutagenic call: inactive; negative
Test System: AMES SALMONELLA TYPHIMURIUM, Strain/Indicator: TA1538, Metabolic Activation: MOUSE, LIVER, S-9, AROCLOR 1254, Method: STANDARD PLATE
  mutagenic call: inactive; negative
Test System: AMES SALMONELLA TYPHIMURIUM, Strain/Indicator: TA1538, Metabolic Activation: MOUSE, LIVER, S-9, Method: STANDARD PLATE
  mutagenic call: inactive; negative
Test System: AMES SALMONELLA TYPHIMURIUM, Strain/Indicator: TA1538, Metabolic Activation: NONE, Method: STANDARD PLATE
  mutagenic call: inactive; negative
Test System: AMES SALMONELLA TYPHIMURIUM, Strain/Indicator: TA1538, Metabolic Activation: RAT, LIVER, S-9, AROCLOR 1254, Method: PREINCUBATION
  mutagenic call: inactive; negative
Test System: AMES SALMONELLA TYPHIMURIUM, Strain/Indicator: TA1538, Metabolic Activation: RAT, LIVER, S-9, AROCLOR 1254, Method: STANDARD PLATE
  mutagenic call: inactive; negative
Test System: AMES SALMONELLA TYPHIMURIUM, Strain/Indicator: TA1538, Metabolic Activation: RAT, LIVER, S-9, Method: STANDARD PLATE
  mutagenic call: inactive; negative
Test System: AMES SALMONELLA TYPHIMURIUM, Strain/Indicator: TA1538, Metabolic Activation: RAT, SPLEEN, S-9, AROCLOR 1254, Method: STANDARD PLATE
  mutagenic call: inactive; negative
Test System: CHINESE HAMSTER V-79, Strain/Indicator: V-79/6-THIOGUANINE, Metabolic Activation: NONE, Method: SUSPENSION/PLATE
  mutagenic call: inactive; negative
Test System: CHINESE HAMSTER V-79, Strain/Indicator: V-79/6-THIOGUANINE, Metabolic Activation: RAT, LIVER, HEPATOCYTES, Method: SUSPENSION/PLATE
  mutagenic call: inactive; negative
Test System: CHINESE HAMSTER V-79, Strain/Indicator: V-79/6-THIOGUANINE, Metabolic Activation: RAT, LIVER, S-9, PHENOBARBITAL AND BETA-NAPHTHOFLAVONE, Method: SUSPENSION/PLATE
  mutagenic call: active; positive
Test System: CHINESE HAMSTER V-79, Strain/Indicator: V-79/8-AZAGUANINE, Metabolic Activation: NONE, Method: SUSPENSION/PLATE
  mutagenic call: active; positive
Test System: CHINESE HAMSTER V-79, Strain/Indicator: V-79/8-AZAGUANINE, Metabolic Activation: S-9, Method: SUSPENSION/PLATE
  mutagenic call: active; positive
Test System: CHINESE HAMSTER V-79, Strain/Indicator: V-79/OUABAIN, Metabolic Activation: NONE, Method: SUSPENSION/PLATE
  mutagenic call: inactive; negative
Test System: CHINESE HAMSTER V-79, Strain/Indicator: V-79/OUABAIN, Metabolic Activation: S-9, Method: SUSPENSION/PLATE
  mutagenic call: inactive; negative
Test System: E. COLI, Strain/Indicator: WP2 UVRA, Metabolic Activation: HAMSTER, LIVER, S-9, AROCLOR 1254, Method: PREINCUBATION
  mutagenic call: inactive; negative
Test System: E. COLI, Strain/Indicator: WP2 UVRA, Metabolic Activation: HAMSTER, LIVER, S-9, AROCLOR 1254, Method: STANDARD PLATE
  mutagenic call: inactive; negative
Test System: E. COLI, Strain/Indicator: WP2 UVRA, Metabolic Activation: HAMSTER, LIVER, S-9, Method: PREINCUBATION
  mutagenic call: inactive; negative
Test System: E. COLI, Strain/Indicator: WP2 UVRA, Metabolic Activation: HAMSTER, LIVER, S-9, Method: STANDARD PLATE
  mutagenic call: inactive; negative
Test System: E. COLI, Strain/Indicator: WP2 UVRA, Metabolic Activation: MOUSE, LIVER, S-9, AROCLOR 1254, Method: PREINCUBATION
  mutagenic call: inactive; negative
Test System: E. COLI, Strain/Indicator: WP2 UVRA, Metabolic Activation: MOUSE, LIVER, S-9, AROCLOR 1254, Method: STANDARD PLATE
  mutagenic call: inactive; negative
Test System: E. COLI, Strain/Indicator: WP2 UVRA, Metabolic Activation: MOUSE, LIVER, S-9, Method: PREINCUBATION
  mutagenic call: inactive; negative
Test System: E. COLI, Strain/Indicator: WP2 UVRA, Metabolic Activation: MOUSE, LIVER, S-9, Method: STANDARD PLATE
  mutagenic call: inactive; negative
Test System: E. COLI, Strain/Indicator: WP2 UVRA, Metabolic Activation: NONE, Method: FLUCTUATION TEST
  mutagenic call: inactive; negative
Test System: E. COLI, Strain/Indicator: WP2 UVRA, Metabolic Activation: NONE, Method: PREINCUBATION
  mutagenic call: inactive; negative
Test System: E. COLI, Strain/Indicator: WP2 UVRA, Metabolic Activation: NONE, Method: STANDARD PLATE
  mutagenic call: inactive; negative
Test System: E. COLI, Strain/Indicator: WP2 UVRA, Metabolic Activation: RAT, LIVER, S-9, AROCLOR 1254, Method: PREINCUBATION
  mutagenic call: inactive; negative
Test System: E. COLI, Strain/Indicator: WP2 UVRA, Metabolic Activation: RAT, LIVER, S-9, AROCLOR 1254, Method: STANDARD PLATE
  mutagenic call: inactive; negative
Test System: E. COLI, Strain/Indicator: WP2 UVRA, Metabolic Activation: RAT, LIVER, S-9, Method: PREINCUBATION
  mutagenic call: inactive; negative
Test System: E. COLI, Strain/Indicator: WP2 UVRA, Metabolic Activation: RAT, LIVER, S-9, Method: STANDARD PLATE
  mutagenic call: inactive; negative
Test System: MOUSE LYMPHOMA, Strain/Indicator: L5178Y (TK+/TK-), Metabolic Activation: NONE, Method: SUSPENSION/PLATE
  mutagenic call: active; positive
Test System: MOUSE LYMPHOMA, Strain/Indicator: L5178Y (TK+/TK-), Metabolic Activation: RAT, LIVER, S-9, AROCLOR 1254, Method: SUSPENSION/PLATE
  mutagenic call: active; positive
Test System: UDS RAT HEPATOCYTES, Strain/Indicator: BROMODEOXYURIDINE INCORP, Metabolic Activation: NONE, Method: FLOW CYTOMETRIC ANALYSIS
  mutagenic call: inactive; negative
Test System: UDS RAT HEPATOCYTES, Strain/Indicator: THY INCORP, Metabolic Activation: NONE, Method: AUTORADIOGRAPHY
  mutagenic call: inactive; negative
Test System: UDS RODENT HEPATOCYTES, Strain/Indicator: THY INCORP (NON-S-PHASE), Metabolic Activation: NONE, Method: AUTORADIOGRAPHY
  mutagenic call: inactive; negative
